Measurements published in publication PMC9851200, “Multiparameter phenotypic screening for endogenous TFEB and TFE3 translocation identifies novel chemical series modulating lysosome function” (Autophagy, 2022).
Read-outs that look alike come from different tables or passages of the source.

How the values were obtained:
Conditions in all cases: PKIS2 primary screening
SH-SY5Y cells [1] = assay: Nuclear count from microscopy images (cellular growth and toxicity); note: reference of the scale not given here
endogenous TFE3 = assay: TFE3 nuclear translocation, immunocytochemistry high-content imaging; format: cell-based
SH-SY5Y cells [2] = test system: SH-SY5Y cells; note: reference of the scale not given here
SH-SY5Y cells [3] = assay: AK (adenylate kinase) release ToxiLight cytotoxicity assay; note: reference of the scale not given here
endogenous TFEB = assay: TFEB nuclear translocation, immunocytochemistry high-content imaging; format: cell-based

| SMILES | Nuclear Count (SH-SY5Y cells [1]) | TFE3 % (endogenous TFE3) | DQ Intensity (SH-SY5Y cells [2]) | DQ Spot (SH-SY5Y cells [2]) | AK (SH-SY5Y cells [3]) | TFEB % (endogenous TFEB) | DQ Intensity (SH-SY5Y cells [2]; DQ Red BSA intensity) | DQ Spot (SH-SY5Y cells [2]; DQ Red BSA spot count) |
| --- | --- | --- | --- | --- | --- | --- | --- | --- |
| Cc1ccc(NC(=O)c2ccnc(N3CCN(C)CC3)c2)cc1-c1ccc(C(=O)NCC2CC2)cc1 [UNC10225009A] | 101.80 | 12.99% | 132.78 | 99.28 | 154.31 | 4.01% | – | – |
| NC(=O)c1cc(-c2ccccc2)cc2c(C3CCNCC3)c[nH]c12 [UNC10225015A] | 93.78 | 15.20% | 84.06 | 101.36 | 102.13 | 3.89% | – | – |
| Cc1ccc(NC(=O)Nc2cccc(Cl)c2)cc1-c1ccc(C(=O)Nc2ccncc2)cc1 [UNC10225019A] | 106.82 | 11.19% | 128.25 | 121.60 | 95.29 | 7.29% | – | – |
| c1ccc(-c2cnc3nccnn23)cc1 [UNC10225020A] | 110.84 | 11.36% | 109.95 | 119.05 | 125.59 | 8.54% | – | – |
| Cc1ccc(NC(=O)c2cccc(N3CCCCC3)c2)cc1-c1ccc(C(=O)NCC2CC2)cc1 [UNC10225021A] | 118.95 | 7.57% | 102.66 | 94.61 | 68.90 | 6.38% | – | – |
| NCCNS(=O)(=O)c1ccc(-c2ccnc3[nH]ccc23)cc1 [UNC10225023A] | 129.56 | 9.07% | – | – | 82.12 | 3.25% | 104.54 | 94.72 |
| NCCNS(=O)(=O)c1ccc(-c2ccnc3[nH]ccc23)cc1 [UNC10225023B] | 135.88 | 14.03% | – | – | 72.23 | 3.92% | 110.40 | 102.49 |
| O=c1cc(N2CCOCC2)nc2n(Cc3cccc(C(F)(F)F)c3)ccn12 [UNC10225024A] | 98.56 | 12.11% | 73.22 | 100.00 | 84.29 | 3.55% | – | – |
| COc1cccc(-c2nc(-c3ccccc3)[nH]c2-c2ccncc2)c1 [UNC10225025A] | 132.30 | 10.01% | – | – | 113.94 | 4.20% | 97.17 | 101.78 |
| Cc1cccc(Nc2nc(NCCN)ncc2C(N)=O)c1 [UNC10225029A] | 111.31 | 9.09% | 100.58 | 100.70 | 118.19 | 4.35% | – | – |
| CNc1nccc(-c2c(-c3ccc(F)cc3)ncn2CCCN2CCOCC2)n1 [UNC10225031A] | 102.35 | 11.89% | 87.71 | 104.14 | 73.64 | 8.16% | – | – |
| Cn1cncc1-c1cc2c(Nc3ccc(OCc4ccccc4)cc3)ncnc2cn1 [UNC10225035A] | 109.40 | 18.86% | – | – | 76.24 | 6.44% | 110.55 | 106.44 |
| Cc1ccc(NC(=O)c2ccnc(N3CCCCC3)c2)cc1-c1ccc(C(=O)NCC2CC2)cc1 [UNC10225036A] | 108.51 | 6.82% | 84.91 | 99.52 | 94.08 | 5.85% | – | – |
| Cn1cc(-c2ccc3c(c2)CCN3C(=O)Cc2cccc(Cl)c2)c2c(N)ncnc21 [UNC10225039A] | 137.18 | 17.54% | 87.65 | 95.36 | 96.09 | 7.96% | – | – |
| COc1ccc(NC(=O)c2ccoc2)cc1-c1ccc(C(=O)NCC2CC2)cc1 [UNC10225046A] | 104.87 | 9.04% | 103.40 | 103.73 | 86.14 | 6.55% | – | – |
| CCn1c(-c2nonc2N)nc2c(-c3ccccc3)ncc(OCCCN)c21.O=C(O)C(F)(F)F.O=C(O)C(F)(F)F [UNC10225047A] | 137.54 | 79.68% | 51.60 | 50.36 | 103.12 | 27.76% | – | – |
| Clc1ccc(-c2cc(-c3c[nH]nc3-c3ccccn3)ccn2)cc1 [UNC10225057A] | 99.07 | 9.30% | – | – | 69.86 | 5.33% | 80.85 | 100.06 |
| Nc1nccc(-c2c(-c3ccc(F)cc3)ncn2C2CCN(Cc3ccccc3)CC2)n1 [UNC10225058A] | 98.98 | 7.38% | 142.65 | 129.81 | 75.20 | 3.25% | – | – |
| COc1cc2ncn(-c3cc(OCc4ccncc4)c(C(N)=O)s3)c2cc1OC [UNC10225069A] | 104.39 | 7.35% | 66.90 | 87.03 | 99.11 | 3.88% | – | – |
| Cn1cc(-c2ccc3c(c2)CCN3C(=O)Cc2cc(F)cc(F)c2F)c2c(N)ncnc21 [UNC10225071A] | 91.42 | 19.64% | 128.82 | 133.47 | 97.57 | 5.81% | – | – |
| N#Cc1ccc(-c2cc(-c3c[nH]nc3-c3ccccn3)ccn2)cc1 [UNC10225072A] | 116.96 | 14.52% | – | – | 65.14 | 2.62% | 58.59 | 75.50 |
| Fc1ccc(Nc2nccc(-c3c(-c4ccc(Cl)cc4)nn4ncccc34)n2)cc1F [UNC10225073A] | 119.55 | 12.07% | 129.98 | 108.87 | 84.83 | 10.16% | – | – |
| Cc1ccc(F)c(C(=O)Nc2cccc(-c3nn4ccccc4c3-c3ccnc(Nc4cccc(F)c4)n3)c2)c1F [UNC10225076A] | 118.77 | 6.05% | 103.33 | 125.97 | 111.27 | 2.83% | – | – |
| O=C(Nc1cccc(-c2nn3ccccc3c2-c2ccnc(Nc3cccc(F)c3)n2)c1)c1c(F)ccc(F)c1Cl [UNC10225081A] | 54.18 | 13.17% | 135.52 | 127.57 | 69.78 | 11.80% | – | – |
| COc1cc(Nc2ncc3c(C)nc(-c4cc5ccccc5[nH]4)n3n2)cc(OC)c1OC [UNC10225084A] | 82.05 | 14.67% | 112.41 | 111.83 | 112.96 | 3.01% | – | – |
| Cl.c1ccc(Cn2ncc3cc(Nc4ncnc5ccccc45)ccc32)cc1 [UNC10225085A] | 82.39 | 11.00% | – | – | 124.83 | 4.60% | 91.33 | 107.62 |
